Conditions: pH 3

CN1CCCC1c1cccnc1.O=C(O)C(O)C(O)C(=O)O (stereo not shown) [Nicotine Bitartrate, nicotine bitartrate]
loss of nicotine into the polymeric dosage form materials, comparison of salts: better

— patent US8256433B2 (priority 1999, dated 2012)
